Experiment [1] deals with T1, GLI1-ZFD (Homo sapiens, UniProt P08151).
T1 construct: GLI1-ZFD Expression and Purification; made in house
T1 sequence (P08151 234-388 limits assumed): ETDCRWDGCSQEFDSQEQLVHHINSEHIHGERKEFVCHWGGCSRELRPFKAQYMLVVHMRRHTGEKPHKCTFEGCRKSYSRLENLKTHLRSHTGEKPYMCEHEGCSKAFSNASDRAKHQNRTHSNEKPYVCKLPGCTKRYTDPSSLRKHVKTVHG
Nature of the experiment: Microscale thermophoresis (MST) binding to GLI1-ZFD. In outline: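 RED-NHS–labeled recombinant GLI1 zinc-finger domain (200 nM) was mixed with compound dilutions (DMSO<5%) in 50 mM HEPES pH 8.3, 100 mM NaCl. Binding was read by microscale thermophoresis on a Monolith NT.115.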

Experiment [2] has as its target T2, MAP2K1 (Homo sapiens, UniProt Q02750).
T2 construct: purchased ThermoFisher Scientific (Madison, WI, USA), contract service
As to the kind of experiment: ZLyte kinase assay, MAP2K1. Type of experiment: biochemical. The settings on record: average of three replicates. On the procedure:
(§1) Kinase screening experiments. Kinase inhibition/binding experiments were performed by ThermoFisher Scientific (Madison, WI, USA) as a contract service, utilizing their default protocols [G. Yernale, A comprehensive review on the biological interest of quinoline and its derivatives. Bioorg. Med. Chem. 32 (2021) 115973]. Briefly, for ZLyte assay, compound in DMSO (100 nL), kinase buffer (2.4 μL), peptide/kinase mixture (5 μL), and ATP solution (2.5 μL) were mixed in a black 384-well plate. Following a 30 s plate shake to mix reagents, the kinase assay mixture was incubated at RT for 60 min. Following addition of the development reagent solution to each well, another 60 min incubation was performed at RT for reaction development. Fluorescent signal was recorded and subsequently analyzed.

The target in experiment [3] is T3, RPS6KB1 (Homo sapiens, UniProt P23443).
T3 construct: purchased ThermoFisher Scientific (Madison, WI, USA), contract service
T3 sequence (P23443 whole entry): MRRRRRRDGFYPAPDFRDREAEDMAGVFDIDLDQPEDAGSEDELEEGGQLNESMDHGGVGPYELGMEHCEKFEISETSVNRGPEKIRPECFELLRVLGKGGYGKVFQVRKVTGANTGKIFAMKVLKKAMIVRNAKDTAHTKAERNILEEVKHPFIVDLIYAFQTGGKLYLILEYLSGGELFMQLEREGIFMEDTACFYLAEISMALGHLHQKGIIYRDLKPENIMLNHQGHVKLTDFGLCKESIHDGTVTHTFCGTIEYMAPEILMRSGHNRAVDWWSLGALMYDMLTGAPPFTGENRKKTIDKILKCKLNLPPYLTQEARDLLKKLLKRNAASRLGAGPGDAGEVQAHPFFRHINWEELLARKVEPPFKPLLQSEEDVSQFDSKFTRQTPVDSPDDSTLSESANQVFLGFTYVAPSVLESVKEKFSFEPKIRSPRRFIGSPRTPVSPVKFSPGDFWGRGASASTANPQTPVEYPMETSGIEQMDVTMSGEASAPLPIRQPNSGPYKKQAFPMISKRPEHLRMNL
As to the kind of experiment: ZLyte kinase assay, RPS6KB1. Type of experiment: biochemical. The settings on record: average of three replicates. On the procedure:
as §1

The target of experiment [4] is T4, PDGFRA (Homo sapiens, UniProt P16234).
T4 construct: purchased ThermoFisher Scientific (Madison, WI, USA), contract service
T4 sequence (P16234 24-1089): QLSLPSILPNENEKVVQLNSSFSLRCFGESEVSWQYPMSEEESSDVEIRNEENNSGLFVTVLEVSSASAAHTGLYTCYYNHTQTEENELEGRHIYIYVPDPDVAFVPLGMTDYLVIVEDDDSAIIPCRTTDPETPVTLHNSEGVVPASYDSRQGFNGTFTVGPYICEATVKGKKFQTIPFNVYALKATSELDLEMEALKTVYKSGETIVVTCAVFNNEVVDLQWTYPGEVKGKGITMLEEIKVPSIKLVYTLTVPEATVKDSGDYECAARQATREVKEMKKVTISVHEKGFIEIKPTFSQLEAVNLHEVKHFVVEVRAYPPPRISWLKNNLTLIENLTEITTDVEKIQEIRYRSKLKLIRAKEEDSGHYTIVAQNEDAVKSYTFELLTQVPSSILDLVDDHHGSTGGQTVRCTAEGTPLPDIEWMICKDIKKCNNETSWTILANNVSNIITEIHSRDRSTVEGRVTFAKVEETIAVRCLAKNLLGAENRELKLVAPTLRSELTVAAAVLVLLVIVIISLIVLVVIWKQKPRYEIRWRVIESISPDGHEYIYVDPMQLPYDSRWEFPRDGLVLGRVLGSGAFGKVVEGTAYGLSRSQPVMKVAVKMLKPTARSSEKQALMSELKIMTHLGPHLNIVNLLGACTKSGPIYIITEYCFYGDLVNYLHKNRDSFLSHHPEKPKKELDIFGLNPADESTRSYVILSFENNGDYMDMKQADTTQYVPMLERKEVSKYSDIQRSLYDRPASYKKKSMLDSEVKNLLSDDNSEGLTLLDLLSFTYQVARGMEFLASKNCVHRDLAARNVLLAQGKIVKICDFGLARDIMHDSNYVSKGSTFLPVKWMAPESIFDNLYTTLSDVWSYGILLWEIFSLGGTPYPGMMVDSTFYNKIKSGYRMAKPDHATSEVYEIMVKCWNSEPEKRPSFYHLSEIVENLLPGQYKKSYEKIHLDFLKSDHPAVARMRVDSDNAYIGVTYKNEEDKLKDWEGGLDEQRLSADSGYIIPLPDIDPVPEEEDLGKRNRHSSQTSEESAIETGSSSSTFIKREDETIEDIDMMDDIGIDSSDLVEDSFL
As to the kind of experiment: ZLyte kinase assay, PDGFRA. The settings on record: average of three replicates. The experiment is classed as biochemical. On the procedure:
as §1

The target in experiment [5] is T5, DYRK2 (Homo sapiens, UniProt Q92630).
T5 construct: purchased ThermoFisher Scientific (Madison, WI, USA), contract service
T5 sequence (Q92630 1-601): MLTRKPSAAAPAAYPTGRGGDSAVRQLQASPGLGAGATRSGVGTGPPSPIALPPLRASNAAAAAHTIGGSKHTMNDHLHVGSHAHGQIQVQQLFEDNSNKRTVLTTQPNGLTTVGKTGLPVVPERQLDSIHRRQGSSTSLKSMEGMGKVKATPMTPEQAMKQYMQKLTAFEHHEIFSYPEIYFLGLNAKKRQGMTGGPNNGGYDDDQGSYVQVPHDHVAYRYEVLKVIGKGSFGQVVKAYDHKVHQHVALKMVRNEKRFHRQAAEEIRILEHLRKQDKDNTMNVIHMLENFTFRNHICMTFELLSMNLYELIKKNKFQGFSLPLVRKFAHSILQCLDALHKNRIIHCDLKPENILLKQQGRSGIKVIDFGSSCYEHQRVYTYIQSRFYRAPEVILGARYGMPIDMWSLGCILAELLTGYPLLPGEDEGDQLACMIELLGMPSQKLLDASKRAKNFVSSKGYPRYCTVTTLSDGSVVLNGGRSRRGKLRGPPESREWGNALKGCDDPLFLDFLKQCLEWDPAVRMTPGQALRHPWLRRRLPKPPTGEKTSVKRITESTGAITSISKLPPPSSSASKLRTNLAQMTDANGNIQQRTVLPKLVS
As to the kind of experiment: LanthaScreen binding assay, DYRK2. As to conditions: average of three replicates, read-out: % inhibition of the kinase DYRK2. On the procedure: as §1
For the LanthaScreen Binding assay, compounds in DMSO (160 nL), kinase buffer (3.84 μL), kinase/antibody mixture (8.0 μL), and tracer (4.0 μL) were mixed in a white 384-well plate. Following a 30 s plate shake to mix the reagents, the kinase assay mixture was incubated at RT for 60 min. Fluorescent signals were recorded and subsequently analyzed.
For orientation: In TR-FRET formats the signal depends on donor and acceptor labels being close together.

In experiment [6] the target is T6, PRKACA (Homo sapiens, UniProt P17612).
T6 construct: purchased ThermoFisher Scientific (Madison, WI, USA), contract service
As to the kind of experiment: ZLyte kinase assay, PRKACA. The experiment is classed as biochemical. The settings on record: average of three replicates. On the procedure: as §1

In experiment [7] the test system is ASZ001 cells. Nature of the experiment: MTS anti-proliferative assay in ASZ001 cells. The settings on record: Mus musculus, ASZ001, Ave ± SEM. The experiment is classed as cell-based, murine. (Formazan colour is commonly taken as a measure of viable cells.)
In experiment [8] the target is T7, MET (Homo sapiens, UniProt P08581).
T7 construct: purchased ThermoFisher Scientific (Madison, WI, USA), contract service
T7 sequence (P08581 25-1390): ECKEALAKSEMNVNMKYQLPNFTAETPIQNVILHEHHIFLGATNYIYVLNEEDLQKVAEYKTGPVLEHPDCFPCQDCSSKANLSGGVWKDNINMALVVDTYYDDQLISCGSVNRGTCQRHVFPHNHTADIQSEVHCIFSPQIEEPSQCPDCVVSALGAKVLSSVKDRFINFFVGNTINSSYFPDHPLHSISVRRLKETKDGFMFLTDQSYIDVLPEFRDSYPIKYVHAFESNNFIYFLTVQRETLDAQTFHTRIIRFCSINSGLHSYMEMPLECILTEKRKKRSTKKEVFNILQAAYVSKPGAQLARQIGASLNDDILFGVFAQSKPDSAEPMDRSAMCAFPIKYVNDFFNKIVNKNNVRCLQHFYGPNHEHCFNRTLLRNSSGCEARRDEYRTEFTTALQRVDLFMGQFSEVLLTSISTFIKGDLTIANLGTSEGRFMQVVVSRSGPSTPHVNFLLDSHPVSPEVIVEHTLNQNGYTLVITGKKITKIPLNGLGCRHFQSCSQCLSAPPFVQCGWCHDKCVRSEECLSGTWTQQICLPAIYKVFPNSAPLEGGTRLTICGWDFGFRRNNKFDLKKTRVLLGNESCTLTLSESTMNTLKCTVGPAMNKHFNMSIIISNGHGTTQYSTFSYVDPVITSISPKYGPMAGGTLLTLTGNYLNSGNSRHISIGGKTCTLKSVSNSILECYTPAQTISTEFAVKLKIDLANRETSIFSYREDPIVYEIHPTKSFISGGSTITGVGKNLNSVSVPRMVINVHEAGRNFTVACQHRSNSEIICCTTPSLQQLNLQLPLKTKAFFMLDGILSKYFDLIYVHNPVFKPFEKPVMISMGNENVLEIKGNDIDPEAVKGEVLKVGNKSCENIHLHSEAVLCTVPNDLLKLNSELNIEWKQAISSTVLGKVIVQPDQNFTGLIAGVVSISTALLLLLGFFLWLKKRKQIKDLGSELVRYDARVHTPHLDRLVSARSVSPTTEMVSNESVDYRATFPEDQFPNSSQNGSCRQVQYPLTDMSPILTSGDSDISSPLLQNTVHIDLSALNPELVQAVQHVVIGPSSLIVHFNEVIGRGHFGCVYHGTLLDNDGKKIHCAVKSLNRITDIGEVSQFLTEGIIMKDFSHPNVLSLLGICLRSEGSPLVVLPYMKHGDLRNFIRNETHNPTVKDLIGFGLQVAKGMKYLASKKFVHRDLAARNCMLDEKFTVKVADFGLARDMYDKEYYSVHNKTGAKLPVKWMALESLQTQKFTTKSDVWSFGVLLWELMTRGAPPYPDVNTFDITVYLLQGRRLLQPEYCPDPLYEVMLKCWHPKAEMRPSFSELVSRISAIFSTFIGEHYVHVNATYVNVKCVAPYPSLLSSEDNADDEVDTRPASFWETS
Nature of the experiment: ZLyte kinase assay, MET. Type of experiment: biochemical. As to conditions: average of three replicates. On the procedure: as §1

In experiment [9] the target is T8, DYRKIA (Homo sapiens, UniProt Q13627).
T8 construct: purchased ThermoFisher Scientific (Madison, WI, USA), contract service
As to the kind of experiment: ZLyte kinase assay, DYRKIA. As to conditions: average of three replicates. Type of experiment: biochemical. On the procedure:
as §1

Experiment [10] concerns the target T9, AKT1 (Homo sapiens, UniProt P31749).
T9 construct: purchased ThermoFisher Scientific (Madison, WI, USA), contract service
As to the kind of experiment: ZLyte kinase assay, AKT1. Type of experiment: biochemical. The settings on record: average of three replicates. On the procedure: as §1

Experiment [11] has as its target T10, MAPK3 (Homo sapiens, UniProt P27361).
T10 construct: purchased ThermoFisher Scientific (Madison, WI, USA), contract service
Nature of the experiment: ZLyte kinase assay, MAPK3. Type of experiment: biochemical. The settings on record: average of three replicates. On the procedure:
as §1

The target in experiment [12] is T11, MAPK1 (Homo sapiens, UniProt P28482).
T11 construct: purchased ThermoFisher Scientific (Madison, WI, USA), contract service
T11 sequence (P28482 whole entry): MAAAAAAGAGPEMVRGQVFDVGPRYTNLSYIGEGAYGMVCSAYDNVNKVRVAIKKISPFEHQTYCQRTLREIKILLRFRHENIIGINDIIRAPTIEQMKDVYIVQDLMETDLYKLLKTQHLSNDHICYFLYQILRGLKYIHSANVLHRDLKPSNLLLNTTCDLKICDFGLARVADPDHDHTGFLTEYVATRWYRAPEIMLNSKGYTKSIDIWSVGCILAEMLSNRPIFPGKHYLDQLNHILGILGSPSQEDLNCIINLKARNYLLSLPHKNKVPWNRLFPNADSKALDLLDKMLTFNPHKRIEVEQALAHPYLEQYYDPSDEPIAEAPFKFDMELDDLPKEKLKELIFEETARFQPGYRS
As to the kind of experiment: ZLyte kinase assay, MAPK1. The settings on record: average of three replicates. The experiment is classed as biochemical. On the procedure:
as §1

Experiment [13] deals with T12, CSF1R (Homo sapiens, UniProt P07333).
T12 construct: purchased ThermoFisher Scientific (Madison, WI, USA), contract service
T12 sequence (P07333 20-972): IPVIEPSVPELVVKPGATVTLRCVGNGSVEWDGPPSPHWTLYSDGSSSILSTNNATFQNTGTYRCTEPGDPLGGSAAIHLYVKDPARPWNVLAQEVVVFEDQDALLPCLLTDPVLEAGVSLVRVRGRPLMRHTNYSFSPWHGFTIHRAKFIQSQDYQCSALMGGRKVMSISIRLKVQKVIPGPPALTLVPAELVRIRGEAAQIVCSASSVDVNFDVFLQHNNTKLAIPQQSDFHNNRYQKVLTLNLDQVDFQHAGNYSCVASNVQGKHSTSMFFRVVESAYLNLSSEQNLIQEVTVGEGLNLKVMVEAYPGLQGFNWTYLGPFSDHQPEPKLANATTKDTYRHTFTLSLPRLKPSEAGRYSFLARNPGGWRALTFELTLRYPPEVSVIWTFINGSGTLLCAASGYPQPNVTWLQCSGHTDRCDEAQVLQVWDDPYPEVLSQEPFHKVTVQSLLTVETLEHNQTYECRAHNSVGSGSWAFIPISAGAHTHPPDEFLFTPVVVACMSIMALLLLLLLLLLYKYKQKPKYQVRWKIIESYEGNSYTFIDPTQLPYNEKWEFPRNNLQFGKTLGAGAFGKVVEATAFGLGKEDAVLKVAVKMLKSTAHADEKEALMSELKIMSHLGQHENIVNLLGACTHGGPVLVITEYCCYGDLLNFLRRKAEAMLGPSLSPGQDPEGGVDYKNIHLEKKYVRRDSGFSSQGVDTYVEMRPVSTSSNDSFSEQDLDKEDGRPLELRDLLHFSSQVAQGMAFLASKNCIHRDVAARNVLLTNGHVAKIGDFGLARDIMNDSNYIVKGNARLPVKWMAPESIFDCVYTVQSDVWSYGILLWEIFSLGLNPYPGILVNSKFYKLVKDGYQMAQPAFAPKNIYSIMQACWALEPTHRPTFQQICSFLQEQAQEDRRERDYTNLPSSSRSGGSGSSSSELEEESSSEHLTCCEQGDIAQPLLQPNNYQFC
As to the kind of experiment: ZLyte kinase assay, CSF1R. The experiment is classed as biochemical. As to conditions: average of three replicates. On the procedure:
as §1

In general, Kd refers to the equilibrium constant for the complex coming apart. Low values mean a tighter complex, high ones a looser complex. By inhibition is commonly meant the relative decrease from the control value, in per cent. In general, GI50 refers to the concentration at which growth is held to half of that of the control. Low readings indicate more potent growth inhibition, high ones less potent growth inhibition.

T9 sequence (P31749 whole entry): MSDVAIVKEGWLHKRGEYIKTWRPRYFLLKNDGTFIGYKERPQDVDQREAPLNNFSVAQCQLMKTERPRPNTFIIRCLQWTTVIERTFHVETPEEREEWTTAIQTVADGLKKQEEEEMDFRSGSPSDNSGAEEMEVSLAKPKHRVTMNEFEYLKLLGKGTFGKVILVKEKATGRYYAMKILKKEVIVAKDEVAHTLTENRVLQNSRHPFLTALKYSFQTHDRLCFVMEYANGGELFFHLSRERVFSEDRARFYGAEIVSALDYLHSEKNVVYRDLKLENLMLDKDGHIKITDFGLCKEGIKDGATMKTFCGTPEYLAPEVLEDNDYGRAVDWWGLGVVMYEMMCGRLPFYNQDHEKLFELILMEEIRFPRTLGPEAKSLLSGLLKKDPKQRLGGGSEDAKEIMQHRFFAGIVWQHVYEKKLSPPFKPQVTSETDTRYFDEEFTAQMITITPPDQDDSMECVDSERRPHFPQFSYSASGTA

With `CCN(CC)c1ccc(C(Nc2ccccn2)c2ccc3ccc(C)nc3c2OC)cc1` (stereo not shown) [Compound 20, N-((4-Diethylaminophenyl)(8-methoxy-2-methylquinolin-7-yl)methyl)pyridin-2-amine], the “binding to GLI1 (in words)” value in [1] (MST binding assay) is recorded as “does not bind to GLI1”. In addition, the dissociation constant (Kd) in experiment [1] (Table 5, Ave ± SEM) was over 125 µM. The inhibition at 1 µM in [2] was 7%; in experiment [3], -2%; in experiment [4] it was 0%; in experiment [5], -2%; in experiment [6], 4%; in experiment [8], 5%. Further, the inhibition at 1 µM in experiment [9] turned out to be 4%; in experiment [10], 4%; in experiment [11] it was 4%; in [12], 10%; in experiment [13] it was 8%. This compound showed a GI50 in experiment [7] (Table 5, 48 h) of over 100 µM.

For the compound `Cc1ccc2ccc(C(Nc3ccccn3)c3ccncc3)c(O)c2n1` (stereo not shown) [Compound 39, 7-((Pyridin-4-yl)(pyridin-2-ylamino)methyl)-2-methylquinolin-8-ol], the Kd in experiment [1] (Table 7, Ave ± SEM) was determined as 9.1 ± 1.5 µM. In addition, the inhibition at 1 µM in experiment [2] is 14%; in experiment [3], 0%; in [4] it was 0%; in experiment [5], -4%; in experiment [6], 6%; in experiment [8] it was 4%. The inhibition at 1 µM is 6% in experiment [9]; 7% in experiment [10]; 2% in experiment [11]; 7% in experiment [12]; 10% in experiment [13]. Also, growth in experiment [7] (Table 7, 48 h) was halved (GI50) at 3.9 ± 1.2 µM.

As for `Cc1ccc2ccc(C(Nc3ccccn3)c3ccc(N4CCCC4=O)cc3)c(O)c2n1` (stereo not shown) [Compound 48, 7-((4-(2-Oxopyrrolidin-1-yl)phenyl)(pyridin-2-ylamino)methyl)-2-methylquinolin-8-ol], binding in experiment [1] (Table 7, Ave ± SEM) was put at a Kd of 8 ± 3.1 µM. The inhibition at 1 µM in experiment [2] was 14%; in experiment [3] it was -1%; in [4] it was 1%; in [5], -1%; in experiment [6], 7%; in experiment [8], 4%. The inhibition at 1 µM amounted to 4% in experiment [9]; 10% in experiment [10]; 7% in experiment [11]; 12% in experiment [12]; 8% in experiment [13]. This compound came in with a GI50 in experiment [7] (Table 7, 48 h) of 19.6 ± 3.6 µM.

The values above are taken from patent publication US20240299400A1, “Transcription Factor GLI1 Inhibitors and Uses Thereof” (University of Connecticut, priority 2023, published 2024).
